From patent publication US20230116399A1, “Tumor Homing Statin Derivatives” (Da Zen Theranostics, Inc., priority 2019, published 2023)

System: 22RV1 prostate cancer cells
Assay: Cholesterol levels in whole cells and mitochondria (LC-SIM)
Assay type: cell-based, human
Protocol: Example 3E: Whole cells and mitochondria are prepared/treated as follows. 22RV1 prostate cancer cells are cultured as described herein-above. The cells are harvested, treated with Lithium dodecyl sulfate (LDS) detergent, then a whole cell fraction and an isolated mitochondrial fraction provided by centrifugation and the pellets are processed to determine their cholesterol levels as follows: cholesterol is extracted with hexane/methanol mixture (7:1, v/v), into which an appropriate amount of stable isotope-labeled d7-cholesterol standard (Avanti Polar Lipids) is spiked. Samples are sonicated in a water-bath, vortexed, and centrifuged at 16,000×g for 5 min at RT. The upper layers are dried down in a SpeedVac at RT. Then samples are incubated with 200 μL 10 mg/mL 4-(dimethylamino)phenyl isocyanate (DMAPI) in dichloromethane and 30 μL triethylamine at 65° C. for 1.5 h in a ThermoMixer. The reaction is quenched by phosphate buffer (pH 8.0), followed by extraction of DMAPI-labeled cholesterol with hexane and vacuum concentration in a SpeedVac. The dry residues are reconstituted in acetonitrile/isopropanol (1:1) and analyzed by liquid chromatography-selected ion monitoring (LC-SIM) using an Ultimate 3000 XRS liquid chromatography system connected to an Orbitrap Fusion Lumos mass spectrometer (Thermo Scientific). Following separation on a 5-cm Hypersil GOLD C18 column, DMAPI-derivatized endogenous cholesterol (m/z 549.442) and d7-cholesterol (m/z 556.485) are analyzed by time-scheduled SIM analysis on an Orbitrap Fusion Lumos. The acquired LC-SIM data are analyzed by Skyline for cholesterol quantification.

CCC(C)(C)C(=O)O[C@H]1C[C@@H](C)C=C2C=C[C@H](C)[C@H](CC[C@@H]3C[C@@H](O)CC(=O)O3)[C@H]21 [Simvastatin]
Cholesterol, mitochondria (mitochondrial fraction): 56 nmol Cholesterol per 10^7 cells
Cholesterol, mitochondria, relative to vehicle control (100%) (mitochondrial fraction): 51%
Cholesterol, mitochondria, relative to vehicle control (100%) (mitochondrial fraction, listed as SIM): (51%)
Cholesterol, whole cells (whole cells): 102 nmol Cholesterol per 10^6 cells
Cholesterol, whole cells, relative to vehicle control (100%) (whole cells): 88%
Cholesterol, whole cells, relative to vehicle control (100%) (whole cells, listed as SIM): (88%)
